Patent US9834558B2, “Substituted bridged urea analogs as sirtuin modulators” (GLAXOSMITHKLINE LLC, priority 2013, dated 2017)
Where two headings read alike, the source gives them in different places. One block for each molecule: values may come before it.

Biological target: T1, SIRT1 (Homo sapiens, UniProt Q96EB6)
T1 sequence (Q96EB6 1-747): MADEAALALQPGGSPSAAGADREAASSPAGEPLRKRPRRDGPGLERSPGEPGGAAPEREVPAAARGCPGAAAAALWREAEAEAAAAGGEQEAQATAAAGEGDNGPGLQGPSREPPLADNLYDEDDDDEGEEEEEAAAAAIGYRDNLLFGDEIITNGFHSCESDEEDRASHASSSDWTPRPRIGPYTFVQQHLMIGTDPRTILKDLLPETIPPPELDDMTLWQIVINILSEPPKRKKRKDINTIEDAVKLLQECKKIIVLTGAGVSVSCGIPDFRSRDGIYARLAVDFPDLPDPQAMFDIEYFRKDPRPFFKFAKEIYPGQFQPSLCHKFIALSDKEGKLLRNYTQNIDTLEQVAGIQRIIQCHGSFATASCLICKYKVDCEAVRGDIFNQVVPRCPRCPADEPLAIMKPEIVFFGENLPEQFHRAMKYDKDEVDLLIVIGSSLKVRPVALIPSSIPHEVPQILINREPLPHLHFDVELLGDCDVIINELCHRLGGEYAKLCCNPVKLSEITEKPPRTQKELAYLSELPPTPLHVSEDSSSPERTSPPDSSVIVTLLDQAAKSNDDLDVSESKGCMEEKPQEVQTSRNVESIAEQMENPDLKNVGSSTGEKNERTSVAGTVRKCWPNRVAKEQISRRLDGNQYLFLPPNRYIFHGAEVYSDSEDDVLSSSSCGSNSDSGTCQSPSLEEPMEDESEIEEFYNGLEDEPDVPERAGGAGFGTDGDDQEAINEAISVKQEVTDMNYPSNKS
Assay: Trp mass spectrometry assay of SIRT1 activation
Type: biochemical
Conditions: for TRP Activity (EC1.5): EC1.5 = concentration that results in 150% activation of SIRT1
Method in brief: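 Activation read-out: mass-spec measurement of O-acetyl-ADP-ribose or deacetylated Trp peptide versus compound-free controls, giving EC1.5 and Percent Maximum Activation. Reactions ran 25 min at 25 °C, pH 7.5, with 120 μM βNAD+, 0.5 μM acetylated p53-derived peptide and 10 nM His-tagged SIRT1.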

[1] = Trp peptide assay, maximum activity relative to control (100%), read-out: TRP MAX RESP (percent maximum fold activation)
[2] = Trp mass spectrometry assay, concentration of test compound giving 150% activation of SIRT1
[3] = concentration giving 150% activation of SIRT1, Trp peptide substrate
[4] = Trp mass spectrometry assay, EC1.5 = concentration of test compound that results in 150% activation of SIRT1
[5] = Trp peptide substrate, concentration giving 150% activation of SIRT1

Structure (SMILES): O=C(Nc1ccc(F)cn1)N1c2nc(-c3cncc(Cl)c3)ccc2N2CCC[C@H]1C2 [Example 401]
Tryp AVG EC1.5 (μM) [2]: A (A (EC1.5<1 μM))

Structure (SMILES): O=C(Nc1cccc(-c2cnco2)c1)N1c2cc(-c3cccc(C(F)(F)F)c3)ccc2N2CC[C@H]1C2 [Example 786]
Tryp AVG EC1.5 (μM) [3]: B (B (EC1.5 1-25 μM))

Structure (SMILES): N=C(N)NCc1ncc(-c2cccc(NC(=O)N3c4nc(-c5cccc(C(F)(F)F)c5)ccc4N4CC[C@H]3C4)c2)o1 [Example 776]
Tryp AVG EC1.5 (μM) [3]: A (A (EC1.5<1 μM))

Structure (SMILES): COc1ncc(-c2ccc3c(n2)N(C(=O)Nc2cnccn2)[C@H]2CCN3C2)c(OC)n1 [Example 398]
Tryp AVG EC1.5 (μM) [2]: B (B (EC1.5 1-25 μM))

Structure (SMILES): O=C(Nc1cnccn1)N1c2nc(N3CCO[C@H](C(F)(F)F)C3)ccc2N2CC[C@H]1C2 [drawing 1227, (9S)-N-(pyrazin-2-yl)-5-[(2S)-2-(trifluoromethyl)morpholin-4-yl]-1,6,8-triazatricyclo[7.2.1.0 {2,7}]dodeca-2(7),3,5-triene-8-carboxamide]
TRP Activity (EC1.5) (Trp peptide assay): A (A (EC1.5<1 μM)) | TRP MAX RESP (percent maximum fold activation) (Trp peptide assay, maximum activity relative to control (100%)): A (A (Fold activation ≧150%))

Structure (SMILES): Cc1nc(NC(=O)N2c3nc(-c4cccc(Cl)c4)ccc3N3C[C@@H](O)[C@H]2C3)sc1C [Example 688]
Tryp AVG EC1.5 (μM) [3]: B (B (EC1.5 1-25 μM))

Structure (SMILES): O=C(Nc1cccnn1)N1c2nc(-c3cccnc3)ccc2N2CCC[C@H]1C2 [Example 457]
Tryp AVG EC1.5 (μM) [4]: B (B (EC1.5 1-25 μM)) | Emax (Trp mass spectrometry assay, percent maximum fold activation of SIRT1, read-out: Tryp % Fold Act): > 150%

Structure (SMILES): O=C(O)c1cc(-c2ccc3c(n2)N(C(=O)Nc2cnccn2)[C@H]2CCN3C2)ccn1 [4-[(9S)-8-[(pyrazin-2-yl)carbamoyl]-1,6,8-triazatricyclo[7.2.1.0 {2,7}]dodeca-2(7),3,5-trien-5-yl]pyridine-2-carboxylic acid]
TRP Activity (EC1.5) (Trp peptide assay): C (C (EC1.5>25 μM)) | Emax [1]: < 150%

Structure (SMILES): O=C(NC1CCC1)c1ccc2c(n1)N(C(=O)Nc1ccccn1)[C@H]1CCN2C1 [(9S)-5-N-cyclobutyl-8-N-(pyridin-2-yl)-1,6,8-triazatricyclo[7.2.1.0^{2,7}]dodeca-2(7),3,5-triene-5,8-dicarboxamide]
TRP Activity (EC1.5) (Trp peptide assay): A (A (EC1.5<1 μM)) | Emax [1]: > 150%

Structure (SMILES): Cc1cc(-c2ccc3c(n2)N(C(=O)N2CCN(C)CC2)[C@H]2CCN3C2)ccn1 [(9S)-8-[(4-methylpiperazin-1-yl)carbonyl]-5-(2-methylpyridin-4-yl)-1,6,8-triazatricyclo[7.2.1.0 {2,7}]dodeca-2,4,6-triene]
TRP Activity (EC1.5) (Trp peptide assay): C (C (EC1.5>25 μM)) | Emax [1]: < 150%

Structure (SMILES): NCc1ccc(NC(=O)N2c3nc(-c4cccc(C(F)(F)F)c4)ccc3N3CC[C@H]2C3)cc1 [Example 429]
Tryp AVG EC1.5 (μM) [4]: B (B (EC1.5 1-25 μM))

Structure (SMILES): Cc1cc(-c2ccc3c(n2)N(C(=O)Nc2cccnn2)[C@H]2CCN3C2)ccn1 [(9S)-5-(2-methylpyridin-4-yl)-N-(pyridazin-3-yl)-1,6,8-triazatricyclo[7.2.1.0 {2,7}]dodeca-2(7),3,5-triene-8-carboxamide]
TRP Activity (EC1.5) (Trp peptide assay): B (B (EC1.5 1-25 μM)) | Emax [1]: > 150%

Structure (SMILES): COc1cc(NC(=O)N2c3nc(-c4cncc(C(F)(F)F)c4)ccc3N3CCC[C@H]2C3)ncn1 [Example 394]
Tryp AVG EC1.5 (μM) [2]: A (A (EC1.5<1 μM))

Structure (SMILES): Cc1cc(-c2ccc3c(n2)N(C(=O)N[C@H](C)c2ccccn2)[C@H]2CCN3C2)ccn1 [(9S)-5-(2-methylpyridin-4-yl)-N-[(1R)-1-(pyridin-2-yl)ethyl]-1,6,8-triazatricyclo[7.2.1.0 {2,7}]dodeca-2,4,6-triene-8-carboxamide]
TRP Activity (EC1.5) (Trp peptide assay): C (C (EC1.5>25 μM)) | Emax [1]: < 150%

Structure (SMILES): COc1cc(NC(=O)N2c3nc(-c4cncc(C(F)(F)F)c4)ccc3N3C[C@@H](O)[C@H]2C3)nc(OC)n1 [Example 704]
Tryp AVG EC1.5 (μM) [3]: B (B (EC1.5 1-25 μM))

Structure (SMILES): Cc1cc(-c2ccc3c(n2)N(C(=O)Nc2cnccn2)[C@H]2CCN3C2)cc(C)n1 [(9S)-5-(2,6-dimethylpyridin-4-yl)-N-(pyrazin-2-yl)-1,6,8-triazatricyclo[7.2.1.0^{2,7}]dodeca-2,4,6-triene-8-carboxamide]
TRP Activity (EC1.5) (Trp peptide assay): A (A (EC1.5<1 μM)) | Emax [1]: > 150%

Further lines, results first:

TRP Activity (EC1.5) (Trp peptide assay): B (B (EC1.5 1-25 μM)) | Emax [1]: > 150%
Structure (SMILES): C[C@@H]1CN(c2ccc3c(n2)N(C(=O)Nc2cnccn2)[C@H]2CCN3C2)C[C@H](C)O1 [(9S)-5-[(2R,6S)-2,6-dimethylmorpholin-4-yl]-N-(pyrazin-2-yl)-1,6,8-triazatricyclo[7.2.1.0 {2,7}]dodeca-2(7),3,5-triene-8-carboxamide]

Tryp AVG EC1.5 (μM) [4]: B (B (EC1.5 1-25 μM))
Structure (SMILES): O=C(Nc1ccncn1)N1c2nc(-c3cncc(Cl)c3)ccc2N2CCC1CC2 [Example 576]

Tryp AVG EC1.5 (μM) [3]: B (B (EC1.5 1-25 μM))
Structure (SMILES): O=C(Nc1cccnc1)N1c2nc(-c3cccc(Cl)c3)ccc2N2C[C@@H](O)[C@H]1C2 [Example 681]

TRP Activity (EC1.5) (Trp peptide assay): B (B (EC1.5 1-25 μM)) | Emax [1]: > 150%
Structure (SMILES): O=C(Nc1cnccn1)N1c2nc(N3CCO[C@H](C(F)(F)F)C3)ccc2N2CC[C@H]1C2 [drawing 1226, (9S)-N-(pyrazin-2-yl)-5-[(2S)-2-(trifluoromethyl)morpholin-4-yl]-1,6,8-triazatricyclo[7.2.1.0 {2,7}]dodeca-2(7),3,5-triene-8-carboxamide]

Tryp AVG EC1.5 (μM) [4]: A (A (EC1.5<1 μM))
Structure (SMILES): Cc1cncc(-c2ccc3c(n2)N(C(=O)Nc2cncc(F)c2)[C@H]2CCCN3C2)c1 [Example 509]

Tryp AVG EC1.5 (μM) [5]: B (B (EC1.5 1-25 μM))
Structure (SMILES): O=C(Nc1ccncn1)N1c2nc(C3CCCC(C(F)(F)F)C3)ccc2N2CC[C@H]1C2 (stereo partly drawn) [Example 98]

Tryp AVG EC1.5 (μM) [3]: A (A (EC1.5<1 μM))
Structure (SMILES): NCC#Cc1ccc(NC(=O)N2c3nc(-c4cccc(C(F)(F)F)c4)ccc3N3CC[C@H]2C3)cc1-c1cnco1 [Example 766]

Tryp AVG EC1.5 (μM) [3]: B (B (EC1.5 1-25 μM))
Structure (SMILES): O=C(Nc1ccccn1)N1c2nc(-c3cccc(Cl)c3)ccc2N2C[C@@H](O)[C@H]1C2 [Example 675]

Tryp AVG EC1.5 (μM) [3]: A (A (EC1.5<1 μM))
Structure (SMILES): C#CCCCNc1nccc(NC(=O)N2c3nc(-c4cccc(C5(C(F)(F)F)N=N5)c4)ccc3N3CC[C@H]2C3)n1 [Example 801]

TRP Activity (EC1.5) (Trp peptide assay): B (B (EC1.5 1-25 μM)) | Emax [1]: > 150%
Structure (SMILES): O=C(Nc1ccccn1)N1c2nc(N3CCOC(C(F)(F)F)C3)ccc2N2CC[C@H]1C2 (stereo partly drawn) [(9S)-N-(pyridin-2-yl)-5-[2-(trifluoromethyl)morpholin-4-yl]-1,6,8-triazatricyclo[7.2.1.0 {2,7}]dodeca-2(7),3,5-triene-8-carboxamide]

TRP Activity (EC1.5) (Trp peptide assay): A (A (EC1.5<1 μM)) | Emax [1]: > 150%
Structure (SMILES): O=C(Nc1ccccn1)N1c2nc(N3CC[C@@H](C(F)(F)F)C3)ccc2N2CC[C@H]1C2 [(9S)-N-(pyridin-2-yl)-5-[(3R)-3-(trifluoromethyl)pyrrolidin-1-yl]-1,6,8-triazatricyclo[7.2.1.0^2,7]dodeca-2,4,6-triene-8-carboxamide]

Tryp AVG EC1.5 (μM) [3]: A (A (EC1.5<1 μM))
Structure (SMILES): O=C(Nc1cncc(F)c1)N1c2nc(-c3cccc(C(F)(F)F)c3)ccc2N2C[C@@H](O)[C@H]1C2 [Example 630]

Tryp AVG EC1.5 (μM) [2]: A (A (EC1.5<1 μM))
Structure (SMILES): COc1cc(NC(=O)N2c3nc(-c4cncc(F)c4)ccc3N3CCC[C@H]2C3)ncn1 [Example 404]

Tryp AVG EC1.5 (μM) [3]: B (B (EC1.5 1-25 μM))
Structure (SMILES): O=C(Nc1ccc(N2CCCCC2)cc1)N1c2nc(-c3cccc(C(F)(F)F)c3)ccc2N2CC[C@H]1C2 [Example 628]

Tryp AVG EC1.5 (μM) [3]: A (A (EC1.5<1 μM))
Structure (SMILES): O=C(Nc1ccccn1)N1c2nc(-c3cccc(C(F)(F)F)c3)ccc2N2CCC[C@H]1C2 [Example 820]

TRP Activity (EC1.5) (Trp peptide assay): B (B (EC1.5 1-25 μM)) | Emax [1]: > 150%
Structure (SMILES): Cc1cc(-c2ccc3c(n2)N(C(=O)Nc2cnccn2)[C@H]2CCN3C2)cnn1

Tryp AVG EC1.5 (μM) [4]: A (A (EC1.5<1 μM))
Structure (SMILES): O=C(Nc1ccncn1)N1c2nc(N3CCCN(CC(F)(F)F)CC3)ccc2N2CCC[C@H]1C2 [Example 491]

Tryp AVG EC1.5 (μM) [4]: A (A (EC1.5<1 μM))
Structure (SMILES): O=C(Nc1cccc(-c2cnco2)c1)N1c2nc(-c3cncc(F)c3)ccc2N2CCC1CC2 [Example 574]

Tryp AVG EC1.5 (μM) [3]: B (B (EC1.5 1-25 μM))
Structure (SMILES): Cc1cncc(NC(=O)N2c3nc(-c4cncc(C(F)(F)F)c4)ccc3N3C[C@@H](O)[C@H]2C3)c1 [Example 690]

Tryp AVG EC1.5 (μM) [2]: A (A (EC1.5<1 μM))
Structure (SMILES): O=C(Nc1ccccn1)N1c2nc(-c3ccnc(N4CCC(F)(F)C4)c3)ccc2N2CC[C@H]1C2 [Example 388]

Tryp AVG EC1.5 (μM) [4]: B (B (EC1.5 1-25 μM))
Structure (SMILES): Cc1ccc(-c2ccc(NC(=O)N3c4nc(-c5cccc(C(F)(F)F)c5)ccc4N4CC[C@H]3C4)cc2)o1 [Example 582]

Tryp AVG EC1.5 (μM) [5]: B (B (EC1.5 1-25 μM))
Structure (SMILES): COc1cc(NC(=O)N2c3nc(-c4cccc(Cl)c4)ccc3N3CC[C@H]2C3)ncn1 [Example 104]
